Assay results taken from patent publication US11845724B2, “USP30 inhibitors and uses thereof” (Vincere Biosciences, Inc., priority 2019, dated 2023).
Like-named read-outs stand apart in the source and are kept apart here.

Experiments:
USP30 [1] = target: T1, USP30 (Homo sapiens (Human), UniProt Q70CQ3); test: Dundee MALDI-TOF mass spectrometry assay (% DUB activity remaining at 1 μM); format: biochemical; conditions: % DUB activity remaining at compound concentration of 1 μM; avg; read-out: Dundee % Activity at 1 μM (avg in vitro MS assay)
T1 sequence (Q70CQ3 whole entry): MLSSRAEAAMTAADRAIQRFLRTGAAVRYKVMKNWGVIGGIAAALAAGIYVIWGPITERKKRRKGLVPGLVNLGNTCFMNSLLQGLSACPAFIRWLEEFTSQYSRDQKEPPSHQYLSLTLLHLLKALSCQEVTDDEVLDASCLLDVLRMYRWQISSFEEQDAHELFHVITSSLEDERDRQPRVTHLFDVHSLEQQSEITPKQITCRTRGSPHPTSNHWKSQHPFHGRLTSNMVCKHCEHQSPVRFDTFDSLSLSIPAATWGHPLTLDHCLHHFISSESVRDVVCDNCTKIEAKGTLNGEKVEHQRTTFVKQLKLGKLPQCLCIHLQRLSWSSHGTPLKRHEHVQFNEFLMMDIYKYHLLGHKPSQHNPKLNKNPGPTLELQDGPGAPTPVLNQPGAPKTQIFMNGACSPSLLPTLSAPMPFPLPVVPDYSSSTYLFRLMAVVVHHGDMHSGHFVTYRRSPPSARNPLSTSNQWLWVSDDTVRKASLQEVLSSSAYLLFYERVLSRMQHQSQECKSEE
Procedure: Compounds were tested in a MALDI-TOF assay based on the paper by Ritorto et al. (Ritorto et al. Screening of DUB activity and specificity by MALDI-TOF mass spectrometry. Nat. Commun. 5:4763).
USP30 (25 ng/μl) tested against K48-linked diubiquitin (5.6 μM). USP30 was diluted in a buffer containing 40 mM Tris, 0.01% BSA, 1 mM DTT and K48 in 40 mM Tris, 0.01% BSA.
The compounds were pre-incubated with the USP30 for 5 mins at room temp before the K48 dimer addition. The assay mixture was then incubated for 45 mins at room temp. The assay was stopped by the addition of TFA to a final concentration of 2% (v/v).
Acidified samples of the DUB assays were mixed with 0.5 mM 15N-ubiquitin and then with one part of 2% (v/v) TFA and one part of 2,5 DHAP matrix solution (7.6 mg of 2,5 DHAP in […] ethanol and […] of an aqueous 12 mg ml 1 diammonium hydrogen citrate). Then 250 nl of these solutions were spotted onto an MTP AnchorChip 1,536 TF and this is analysed on the Bruker rapifleX MALDI-TOF.
Table 22 presents the Dundee MALDI-TOF values expressed as % DUB activity remaining at a compound concentration of 1 μM.

[2] = target: recombinant USP30 (amino acids 57-517 of the human sequence) (Homo sapiens (Human), UniProt Q70CQ3); test: In vitro USP30 biochemical assay (Ubiquitin-Rhodamine)
Chain of recombinant USP30 (amino acids 57-517 of the human sequence) (Q70CQ3 57-517): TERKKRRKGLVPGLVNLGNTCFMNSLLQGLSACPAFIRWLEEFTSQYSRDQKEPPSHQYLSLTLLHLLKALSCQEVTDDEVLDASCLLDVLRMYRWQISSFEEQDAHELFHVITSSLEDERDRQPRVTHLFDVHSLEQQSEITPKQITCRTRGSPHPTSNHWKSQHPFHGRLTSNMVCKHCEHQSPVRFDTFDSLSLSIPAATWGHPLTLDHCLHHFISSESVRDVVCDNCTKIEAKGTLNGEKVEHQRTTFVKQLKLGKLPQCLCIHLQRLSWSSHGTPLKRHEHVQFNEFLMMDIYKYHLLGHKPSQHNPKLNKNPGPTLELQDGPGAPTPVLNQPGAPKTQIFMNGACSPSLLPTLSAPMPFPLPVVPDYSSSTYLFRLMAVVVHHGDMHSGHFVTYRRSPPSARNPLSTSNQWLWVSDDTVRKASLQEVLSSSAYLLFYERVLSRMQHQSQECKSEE
Procedure: In vitro biochemical assay to establish the potency of compounds for USP30 inhibition: a 384-well plate assay using a fluorophore tagged substrate of USP30 was used for in vitro screening of compounds. Each compound was tested at 10 different concentrations (0.5 to 10,000 nM) in duplicate wells. Compounds were pre-incubated at 25° C. for 30 min in an assay buffer consisting of 20 mM Tris/HCl, pH8.0, 1 mM GSH, 0.01% Triton X-100, 0.03% BGG and 1.5 nM recombinant USP30 (amino acids 57-517 of the human sequence with a C-terminal 6-His tag). Following the pre-incubation, Ubiquitin-Rhodamine substrate dissolved in the assay buffer was added at the final concentration of 25 nM to each well and plates were incubated at 25° C. for an additional 75 minutes. The reaction was stopped by adding 10 mM citric acid and fluorescence was read using excitation wavelength 485 nm, emission of 535 nm. Data were analyzed using Graph Pad Prism software with a four-parameter (floating slope) fit to log concentration data to determine IC50s.

USP30 [3] = target: T1, USP30; test: Dundee MALDI-TOF mass spectrometry assay (IC50); format: biochemical; conditions: USP30 25 ng/μl, K48-linked diubiquitin 5.6 μM
In short: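 USP30 (25 ng/μl) preincubated with compound 5 min at RT in Tris/BSA/DTT buffer, then K48-linked diubiquitin (5.6 μM) added for 45 min at RT. Stopped with 2% TFA; cleavage quantified by MALDI-TOF mass spectrometry to give IC50.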

[4] = read-out: USP30 IC50 μM (avg), Ubiquitin-Rhodamine substrate 25 nM, 1.5 nM recombinant USP30
[5] = avg, read-out: Dundee IC50 μM (avg in vitro MS assay)
[6] = USP30 IC50 μM (avg), Ubiquitin-Rhodamine substrate 25 nM, 1.5 nM recombinant USP30

With `CC(C)(C)NS(=O)(=O)c1ccc(N2C(=O)C(NC(=O)c3ccc(F)cc3)Cc3ccccc32)cc1` (centres unmarked) [Compound I-20, N-(1-(4-(N-tert-butylsulfamoyl)phenyl)-2-oxo-1,2,3,4-tetrahydroquinolin-3-yl)-4-fluorobenzamide] the activity at 1 µM (USP30 [1]) was over 75% and the IC50 [2, 4] was over 10 µM.
Work on `CC(C)(C)NS(=O)(=O)c1cccc(NC(=O)[C@H](Cc2ccccc2)NC(=O)c2ccc(F)cc2)c1` [Compound I-68, (S)-N-(1-(3-(N-tert-butylsulfamoyl)phenylamino)-1-oxo-3-phenylpropan-2-yl)-4-fluorobenzamide] yielded an IC50 (USP30 [3]; Dundee IC50 μM (avg in vitro MS assay)) of over 1 µM and an activity at 1 µM (USP30 [1]) of over 75%.
For `CC(C)(C)NS(=O)(=O)c1ccc(NC(=O)[C@H](Cc2ccccc2)OCc2ccc(F)cc2)cc1` [Compound I-46, (S)-N-(4-(N-tert-butylsulfamoyl)phenyl)-2-(4-fluorobenzyloxy)-3-phenylpropanamide], the IC50 (USP30 [3]; [5]) was over 1 µM and the activity at 1 µM (USP30 [1]) was over 75%.
In the case of `CCNS(=O)(=O)c1ccc(NC(=O)[C@H](Cc2ccccc2)N(CC)C(=O)c2ccc(F)cc2)cc1` [Compound I-52, (S)-N-ethyl-N-(1-(4-(N-ethylsulfamoyl)phenylamino)-1-oxo-3-phenylpropan-2-yl)-4-fluorobenzamide], the activity at 1 µM (USP30 [1]) is reported as over 75% and the IC50 [2, 4] is reported as over 10 µM.
Work on `CC(C)(C)NS(=O)(=O)c1ccc(NC(=O)[C@H](Cc2ccccc2)NC(=O)OC2CCOCC2)cc1` [Compound I-43, (S)-tetrahydro-2H-pyran-4-yl 1-(4-(N-tert-butylsulfamoyl)phenylamino)-1-oxo-3-phenylpropan-2-ylcarbamate] yielded an activity at 1 µM (USP30 [1]) of 50 to 75% and an IC50 [2, 6] of 1 to 10 µM.
Work on `CC(C)(C)NS(=O)(=O)c1ccc(NC(=O)C2Cc3cnccc3N2C(=O)c2ccc(F)cc2)cc1` (centres unmarked) [Compound I-55, N-(4-(N-tert-butylsulfamoyl)phenyl)-1-(4-fluorobenzoyl)-2,3-dihydro-1H-pyrrolo[3,2-c]pyridine-2-carboxamide] yielded an activity at 1 µM (USP30 [1]) of over 75% and an IC50 [2, 4] of over 10 µM.
`CC(C)(C)NS(=O)(=O)c1ccc(NC(=O)C2Cc3ccccc3N2C(=O)c2ccc(F)cc2)cc1` (centres unmarked) [Compound I-53, N-(4-(N-tert-butylsulfamoyl)phenyl)-1-(4-fluorobenzoyl)indoline-2-carboxamide] showed an activity at 1 µM (USP30 [1]) of over 75% and an IC50 [2, 4] of over 10 µM.
Work on `CC(C)(C)NS(=O)(=O)c1ccc(NC(=O)C2Cc3ncccc3CN2C(=O)c2ccc(F)cc2)cc1` (centres unmarked) [Compound I-60, N-(4-(N-tert-butylsulfamoyl)phenyl)-6-(4-fluorobenzoyl)-5,6,7,8-tetrahydro-1,6-naphthyridine-7-carboxamide] yielded an activity at 1 µM (USP30 [1]) of over 75% and an IC50 [2, 4] of over 10 µM.
`CC(C)(C)NS(=O)(=O)c1ccc(NC(=O)C2Cc3cccnc3CN2C(=O)c2ccc(F)cc2)cc1` (centres unmarked) [Compound I-59, N-(4-(N-tert-butylsulfamoyl)phenyl)-7-(4-fluorobenzoyl)-5,6,7,8-tetrahydro-1,7-naphthyridine-6-carboxamide] gave an activity at 1 µM (USP30 [1]) of over 75% and an IC50 [2, 6] of 1 to 10 µM.
`O=C(N[C@@H](Cc1ccccc1)C(=O)Nc1ccc(S(=O)(=O)NC2CCC2)cc1)c1ccccn1` [Compound I-78, (S)-N-(1-(4-(N-cyclobutylsulfamoyl)phenylamino)-1-oxo-3-phenylpropan-2-yl) picolinamide] gave an IC50 (USP30 [3]; [5]) of 0.05 to 1 µM and an IC50 [2, 6] of 1 to 10 µM.
In the case of `CCNS(=O)(=O)c1ccc(NC(=O)[C@H](Cc2ccccc2)NC(=O)c2ccc(F)cc2)cc1OC` [Compound I-146, (S)-N-(1-(4-(N-ethylsulfamoyl)-3-methoxyphenylamino)-1-oxo-3-phenylpropan-2-yl)-4-fluorobenzamide], the IC50 (USP30 [3]; [5]) is reported as 0.05 to 1 µM and the IC50 [2, 6] is reported as 0.05 to 1 µM.
Work on `COCC(C)(C)NS(=O)(=O)c1ccc(NC(=O)[C@H](Cc2ccccc2)NC(=O)c2ccc(F)cc2)cn1` [Compound I-113, (S)-4-fluoro-N-(1-(6-(N-(1-methoxy-2-methylpropan-2-yl)sulfamoyl)pyridin-3-ylamino)-1-oxo-3-phenylpropan-2-yl)benzamide] yielded an IC50 (USP30 [3]; [5]) of 0.05 to 1 µM and an IC50 [2, 6] of 0.05 to 1 µM.
In the case of `CC(C)(C)NS(=O)(=O)c1ccc(NC(=O)[C@H](Cc2ccccc2)N2CCc3ccccc3C2=O)cc1` [Compound I-84, (S)-N-(4-(N-tert-butylsulfamoyl)phenyl)-2-(1-oxo-3,4-dihydroisoquinolin-2(1H)-yl)-3-phenylpropanamide], the IC50 (USP30 [3]; [5]) is reported as 0.05 to 1 µM and the IC50 [2, 6] is reported as 0.05 to 1 µM.
`CCNS(=O)(=O)c1cccc2c(NC(=O)[C@H](Cc3ccccc3)NC(=O)c3ccc(F)cc3)cccc12` [Compound I-125] showed an IC50 (USP30 [3]; [5]) of under 0.05 µM and an IC50 [2, 6] of 0.05 to 1 µM.
With `O=C(N[C@@H](Cc1ccccc1)C(=O)Nc1ccc(S(=O)(=O)NCCN2CCOCC2)nc1)c1ccc(F)cc1` [Compound I-111, (S)-4-fluoro-N-(1-(6-(N-(2-morpholinoethyl)sulfamoyl)pyridin-3-ylamino)-1-oxo-3-phenylpropan-2-yl)benzamide] the IC50 (USP30 [3]; [5]) was 0.05 to 1 µM and the IC50 [2, 6] was 0.05 to 1 µM.
`COc1cc(NC(=O)[C@H](Cc2ccccc2)NC(=O)c2ccc(F)cc2)ccc1S(=O)(=O)NC12CC(C1)C2` [Compound I-148, (S)-N-(1-(4-(N-bicyclo[1.1.1]pentan-1-ylsulfamoyl)-3-methoxyphenylamino)-1-oxo-3-phenylpropan-2-yl)-4-fluorobenzamide] showed an IC50 (USP30 [3]; [5]) of under 0.05 µM and an IC50 [2, 6] of 0.05 to 1 µM.
Molecule `CC(C)(C)NS(=O)(=O)c1ccc(N2Cc3ccccc3CC(NC(=O)c3ccc(F)cc3)C2=O)cc1` (centres unmarked) [Compound I-21, N-(2-(4-(N-tert-butylsulfamoyl)phenyl)-3-oxo-2,3,4,5-tetrahydro-1H-benzo[c]azepin-4-yl)-4-fluorobenzamide] has an activity at 1 µM (USP30 [1]) of over 75% and an IC50 [2, 4] of over 10 µM.
`CC(C)(CF)NS(=O)(=O)c1ccc(NC(=O)[C@H](Cc2ccccc2)NC(=O)c2ccc(F)cc2)cc1` [Compound I-10, (S)-4-Fluoro-N-(1-(4-(N-(1-fluoro-2-methylpropan-2-yl)sulfamoyl)phenylamino)-1-oxo-3-phenylpropan-2-yl)benzamide] was tested, and the IC50 (USP30 [3]; [5]) was under 0.05 µM and the IC50 [2, 4] was under 0.05 µM.
`O=C(N[C@@H](Cc1ccccc1)C(=O)Nc1ccc(S(=O)(=O)NC23CC(C2)C3)cn1)c1ccc(F)cc1` [Compound I-118, (S)-N-(1-(5-(N-bicyclo[1.1.1]pentan-1-ylsulfamoyl)pyridin-2-ylamino)-1-oxo-3-phenylpropan-2-yl)-4-fluorobenzamide] gave an IC50 (USP30 [3]; [5]) of 0.05 to 1 µM and an IC50 [2, 6] of 0.05 to 1 µM.
With `C[C@H](NS(=O)(=O)c1ccc(NC(=O)[C@H](Cc2ccccc2)NC(=O)c2ccc(F)cc2)cc1)C(F)(F)F` [Compound I-13, 4-fluoro-N-((S)-1-oxo-3-phenyl-1-(4-(N-((S)-1,1,1-trifluoropropan-2-yl)sulfamoyl)phenylamino)propan-2-yl)benzamide] the IC50 (USP30 [3]; [5]) was under 0.05 µM and the IC50 [2, 6] was 0.05 to 1 µM.
`COCC(C)(C)NS(=O)(=O)c1ccc(NC(=O)[C@H](Cc2ccccc2)NC(=O)c2ccc(F)cc2)cc1` [Compound I-134, (S)-4-fluoro-N-(1-(4-(N-(1-methoxy-2-methylpropan-2-yl)sulfamoyl)phenylamino)-1-oxo-3-phenylpropan-2-yl)benzamide] was tested, and the IC50 (USP30 [3]; [5]) was under 0.05 µM and the IC50 [2, 4] was under 0.05 µM.
`CC(C)(CN1CCOCC1)NS(=O)(=O)c1ccc(NC(=O)[C@H](Cc2ccccc2)NC(=O)c2ccc(F)cc2)cc1` [Compound I-162, (S)-4-fluoro-N-(1-(4-(N-(2-methyl-1-morpholinopropan-2-yl)sulfamoyl)phenylamino)-1-oxo-3-phenylpropan-2-yl)benzamide] showed an IC50 (USP30 [3]; [5]) of under 0.05 µM and an IC50 [2, 4] of under 0.05 µM.
